Data: patent US20080274892A1, “Novel Haloalkylsulfonanilide Derivative, Herbicide, and Method of Use Thereof” (priority 2005, published 2008)

What was measured:
[1] = test system: bulrush; experiment: Test Example 1: herbicidal efficacy on rice paddy weeds pre-emergence; type: in vivo, Scirpus juncoides; conditions: dosage 1000 g/ha, 21 days
[2] = test system: paddy rice plant (cultivar: Nihonbare); experiment: Test Example 3: phytotoxicity test for transplanted paddy rice plant; type: in vivo; conditions: dosage 1000 g/ha; transplanted rice, treated 5 days after transplantation; 21 days after treatment
Outline: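 Clay loam soil was placed in a 75 cm^2 plastic pot and flooded to a water depth of 5 cm. Two Nihonbare paddy rice plants at the two-leaf stage were transplanted 1 cm deep and grown in a hot house. After treatment, pots stayed in the hot house for 21 days, and phytotoxicity was then graded against an untreated control.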

[3] = test system: barnyard glass; experiment: Test Example 2: herbicidal efficacy on rice paddy weeds post-emergence; type: in vivo, Echinochloa crus-galli; conditions: dosage 1000 g/ha; post-emergence, one leaf stage; 21 days after treatment
Outline: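 Plastic pots of 75 cm^2 were filled with clay loam soil and sown with barnyard glass and bulrush seeds, then topped with 75 cm^3 soil containing false pimpernel seeds. The pots were flooded to 5 cm water depth and held in a hot house. Twenty-one days after treatment, herbicidal efficacy was graded against an untreated control.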

[4] = test system: false pimpernel; experiment: as above; type: in vivo, Lindernia pyxidaria; conditions: dosage 1000 g/ha; post-emergence, one leaf stage; 21 days after treatment
[5] = test system: transplanted paddy rice plant and Bulrush; experiment: Test Example 5: selectivity between transplanted paddy rice plant and weeds; type: in vivo; conditions: (highest dosage with no phytotoxicity to paddy rice)/(lowest dosage with effective level 4 on Bulrush); rice 3000-100 g/ha, Bulrush 300-10 g/ha; 21 days
Outline: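 Transplanted paddy rice was treated at 3000, 1000, 300 and 100 g/ha active ingredient for phytotoxicity, and post-emergence bulrush at 300, 100, 30 and 10 g/ha. Plants were kept in a hothouse for 21 days. Growth inhibition versus untreated control was scored 0–4 (0%, 1–39%, 40–69%, 70–89%, 90–100%).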

[6] = test system: bulrush; experiment: Test Example 2: herbicidal efficacy on rice paddy weeds post-emergence; type: in vivo, Scirpus juncoides; conditions: dosage 1000 g/ha; post-emergence, one leaf stage; 21 days after treatment
[7] = test system: false pimpernel; experiment: Test Example 1: herbicidal efficacy on rice paddy weeds pre-emergence; type: in vivo, Lindernia pyxidaria; conditions: dosage 1000 g/ha, 21 days
[8] = test system: bulrush; experiment: Test Example 4: low dosage test for rice paddy weeds; type: in vivo, Scirpus juncoides; conditions: 300 g/ha as an active ingredient; plants treated at the one leaf stage; 21 days after treatment; vs untreated control
Outline: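 Bulrush sown in clay loam pots, flooded to 5 cm water in a hot house, treated at the one-leaf stage with formulated compound at 300 g/ha. Efficacy scored 0–4 against untreated control 21 days after treatment (4 = 90–100%, 0 = 0% inhibition).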

| Structure (SMILES) | Bulrush pre (herbicidal efficacy grade) [1] | Phytotoxicity to paddy rice [2] | Burnyard grass post (herbicidal efficacy grade) [3] | False pimpernel post (herbicidal efficacy grade) [4] | Selective Index [5] | Bulrush post (herbicidal efficacy grade) [6] | False pimpernel pre (herbicidal efficacy grade) [7] | Herbicide effect to Bulrush [8] |
| --- | --- | --- | --- | --- | --- | --- | --- | --- |
| CCCC1(CC)CN(Cc2ccccc2N(C(=O)OC)S(=O)(=O)C(F)(F)F)C(=O)O1 (stereo not drawn) [1-144] | 4 (90%-100% of herbicidal efficacy or phytotoxicity) | 1 (1%-39% of herbicidal efficacy or phytotoxicity) | 4 (90%-100% of herbicidal efficacy or phytotoxicity) | 4 (90%-100% of herbicidal efficacy or phytotoxicity) | 10 | 4 (90%-100% of herbicidal efficacy or phytotoxicity) | 4 (90%-100% of herbicidal efficacy or phytotoxicity) | 4 (90%-100% of herbicidal efficacy or phytotoxicity) |
| CCC1(C(C)C)CN(Cc2ccccc2N(C(=O)OC)S(=O)(=O)C(F)(F)F)C(=O)O1 (stereo not drawn) [1-145] | 4 (90%-100% of herbicidal efficacy or phytotoxicity) | 2 (40%-69% of herbicidal efficacy or phytotoxicity) | 4 (90%-100% of herbicidal efficacy or phytotoxicity) | 4 (90%-100% of herbicidal efficacy or phytotoxicity) | 10 | 4 (90%-100% of herbicidal efficacy or phytotoxicity) | 4 (90%-100% of herbicidal efficacy or phytotoxicity) | 4 (90%-100% of herbicidal efficacy or phytotoxicity) |
| COCC1(C)CN(Cc2ccccc2N(C(=O)OCC(C)(C)C)S(=O)(=O)C(F)(F)F)C(=O)O1 (stereo not drawn) [1-146] | 4 (90%-100% of herbicidal efficacy or phytotoxicity) | 1 (1%-39% of herbicidal efficacy or phytotoxicity) | 4 (90%-100% of herbicidal efficacy or phytotoxicity) | 4 (90%-100% of herbicidal efficacy or phytotoxicity) | 10 | 4 (90%-100% of herbicidal efficacy or phytotoxicity) | 4 (90%-100% of herbicidal efficacy or phytotoxicity) | 4 (90%-100% of herbicidal efficacy or phytotoxicity) |
| COC(=O)N(c1ccccc1CN1C(=O)OC(C)(C)C1C)S(=O)(=O)C(F)(F)F (stereo not drawn) [1-148] | 4 (90%-100% of herbicidal efficacy or phytotoxicity) | 3 (70%-89% of herbicidal efficacy or phytotoxicity) | 4 (90%-100% of herbicidal efficacy or phytotoxicity) | 4 (90%-100% of herbicidal efficacy or phytotoxicity) | ≧30 | 4 (90%-100% of herbicidal efficacy or phytotoxicity) | 4 (90%-100% of herbicidal efficacy or phytotoxicity) | 4 (90%-100% of herbicidal efficacy or phytotoxicity) |
| COC(=O)N(c1ccccc1CN1CC2(CCCCC2)OC1=O)S(=O)(=O)C(F)(F)F [1-149] | 4 (90%-100% of herbicidal efficacy or phytotoxicity) | 2 (40%-69% of herbicidal efficacy or phytotoxicity) | 4 (90%-100% of herbicidal efficacy or phytotoxicity) | 4 (90%-100% of herbicidal efficacy or phytotoxicity) | 10 | 4 (90%-100% of herbicidal efficacy or phytotoxicity) | 4 (90%-100% of herbicidal efficacy or phytotoxicity) | 4 (90%-100% of herbicidal efficacy or phytotoxicity) |
| COC(=O)N(c1ccccc1CN1C(=O)OCC1C)S(=O)(=O)C(F)(F)F (stereo not drawn) [1-150] | 4 (90%-100% of herbicidal efficacy or phytotoxicity) | 2 (40%-69% of herbicidal efficacy or phytotoxicity) | 4 (90%-100% of herbicidal efficacy or phytotoxicity) | 4 (90%-100% of herbicidal efficacy or phytotoxicity) | 10 | 4 (90%-100% of herbicidal efficacy or phytotoxicity) | 4 (90%-100% of herbicidal efficacy or phytotoxicity) | 4 (90%-100% of herbicidal efficacy or phytotoxicity) |
| COC(=O)N(c1ccccc1CN1C(=O)OC2CCCCC21)S(=O)(=O)C(F)(F)F (stereo not drawn) [1-152] | 4 (90%-100% of herbicidal efficacy or phytotoxicity) | 1 (1%-39% of herbicidal efficacy or phytotoxicity) | 4 (90%-100% of herbicidal efficacy or phytotoxicity) | 4 (90%-100% of herbicidal efficacy or phytotoxicity) | 10 | 4 (90%-100% of herbicidal efficacy or phytotoxicity) | 4 (90%-100% of herbicidal efficacy or phytotoxicity) | 4 (90%-100% of herbicidal efficacy or phytotoxicity) |
| COC(=O)N(c1ccccc1CN1CC(C)(C(C)(C)C)OC1=O)S(=O)(=O)C(F)(F)F (stereo not drawn) [1-153] | 4 (90%-100% of herbicidal efficacy or phytotoxicity) | 1 (1%-39% of herbicidal efficacy or phytotoxicity) | 4 (90%-100% of herbicidal efficacy or phytotoxicity) | 4 (90%-100% of herbicidal efficacy or phytotoxicity) | 10 | 4 (90%-100% of herbicidal efficacy or phytotoxicity) | 4 (90%-100% of herbicidal efficacy or phytotoxicity) | 4 (90%-100% of herbicidal efficacy or phytotoxicity) |
| COC(=O)N(c1ccccc1CN1CC(C)(C2CCCCC2)OC1=O)S(=O)(=O)C(F)(F)F (stereo not drawn) [1-157] | 4 (90%-100% of herbicidal efficacy or phytotoxicity) | 1 (1%-39% of herbicidal efficacy or phytotoxicity) | 4 (90%-100% of herbicidal efficacy or phytotoxicity) | 4 (90%-100% of herbicidal efficacy or phytotoxicity) | 3 | 4 (90%-100% of herbicidal efficacy or phytotoxicity) | 4 (90%-100% of herbicidal efficacy or phytotoxicity) | 3 (70%-89% of herbicidal efficacy or phytotoxicity) |
| CC1(C2(C)CN(Cc3ccccc3NS(=O)(=O)C(F)(F)F)C(=O)O2)CC1 (stereo not drawn) [1-167] | 4 (90%-100% of herbicidal efficacy or phytotoxicity) | 1 (1%-39% of herbicidal efficacy or phytotoxicity) | 4 (90%-100% of herbicidal efficacy or phytotoxicity) | 4 (90%-100% of herbicidal efficacy or phytotoxicity) | ≧10 | 4 (90%-100% of herbicidal efficacy or phytotoxicity) | 4 (90%-100% of herbicidal efficacy or phytotoxicity) | 4 (90%-100% of herbicidal efficacy or phytotoxicity) |
| CC(C)COC(=O)N(c1ccccc1CN1CC(C)(C2(C)CC2)OC1=O)S(=O)(=O)C(F)(F)F (stereo not drawn) [1-168] | 4 (90%-100% of herbicidal efficacy or phytotoxicity) | 1 (1%-39% of herbicidal efficacy or phytotoxicity) | 4 (90%-100% of herbicidal efficacy or phytotoxicity) | 4 (90%-100% of herbicidal efficacy or phytotoxicity) | 10 | 4 (90%-100% of herbicidal efficacy or phytotoxicity) | 4 (90%-100% of herbicidal efficacy or phytotoxicity) | 4 (90%-100% of herbicidal efficacy or phytotoxicity) |
| COC(=O)N(c1ccccc1CN1CC(C)(C2(C)CC2)OC1=O)S(=O)(=O)C(F)(F)F (stereo not drawn) [1-169] | 4 (90%-100% of herbicidal efficacy or phytotoxicity) | 1 (1%-39% of herbicidal efficacy or phytotoxicity) | 4 (90%-100% of herbicidal efficacy or phytotoxicity) | 4 (90%-100% of herbicidal efficacy or phytotoxicity) | 10 | 4 (90%-100% of herbicidal efficacy or phytotoxicity) | 4 (90%-100% of herbicidal efficacy or phytotoxicity) | 4 (90%-100% of herbicidal efficacy or phytotoxicity) |
